Legend:
[1] = following oral administration (Gugler et al. 1975); cited from earlier work
[2] = system: Human coronary artery smooth muscle cells (CASMCs); experiment: Smooth muscle cell proliferation protocol; format: cell-based; settings: 72 hours, read-out: % Inhibition of SMC Proliferation
Experimental: Compounds were dissolved in DMSO, aliquoted, and stored at −20° C. Human coronary artery smooth muscle cells (CASMCs) were plated in 96-well plates and were grown in SmBM-2 media. After 1-2 hours, media was aspirated and replaced with serum-free ME/F12 media, except the controls. Cells were incubated for a further 48 hours. Compounds were diluted in DME/F12 containing 10% FBS. Media was aspirated from the plates and compounds in DME/F12 containing 10% FBS. Six wells were used per condition and duplicate plates were used. Cells were incubated for a further 72 hours. Media was aspirated from one set of plates; those cells were refed (˜100 μL/well) with 20% CellTiter 96 Aqueous One Cell Proliferation Solution (Promega), 80% EGM-2 medium. Media optical density (at 490 nm) was determined after 3-4 hours. In the second set of plates, serum-free DME/F12 media (20 μL) was added to each well. Part of the supernatant (50 μL) was removed and placed in an ELISA plate and was stored temporarily at 4° C. The remaining media and cells in the second set of plates were freeze-thawed for four cycles. The lysates and supernatants were mixed and centrifuged. Part of the supernatant (50 μL) was removed and placed in an ELISA plate. The Promega Cytotox assay was performed on the ELISA plates. The ratio of supernatant OD to supernatant+cell lysate OD was determined.
In Table 2, a positive result (+) was defined as at least 40% inhibition of the proliferation of SMC, as determined by the assay.

VCAM-1 = VCAM-1 ELISA on lysates of TNF-α stimulated HUVECs; format: cell-based; settings: Homo sapiens, HUVEC, approx. 16 hours
Experimental: (§1) Compounds were dissolved in DMSO, aliquoted, and stored at −20° C. Cultured human vascular endothelial cells (HUVECs) were seeded in 96-well plates in complete EGM-2 media (˜100 μL/well); cells were plated at ˜2-3×10^5/mL, and were from passage 8 to 12. Cells were incubated overnight. On the following day cells are stimulated with TNF-α (˜1 ng/mL) in the presence or absence of compounds dissolved in DMSO. Triplicate wells were used for each test. To establish a dose curve and an IC50, multiple concentrations in 2- to 5-fold increments were used. Cells were exposed to TNF-α and compounds for approximately 16 hours. The next day, cells were visually examined via light microscopy to score for visual signs of toxicity. Cell culture media was analyzed using an MCP-1 ELISA. Cells were refed (−100 μL/well) with 20% CellTiter 96. Aqueous One Cell Proliferation Solution (Promega), 80% EGM-2 medium. Media optical density (at 490 nm) was determined after 1 hour. Plates were aspirated and cell lysates were prepared and these lysates were tested using a VCAM-1 ELISA.
(§2) In Table 2, a positive result (+) was defined as at least 50% inhibition of the protein levels MCP-1 or VCAM-1, as determined by the ELISA.

MCP-1 = MCP-1 ELISA on culture media of TNF-α stimulated HUVECs; format: cell-based; settings: Homo sapiens, HUVEC, approx. 16 hours
Experimental: as §1, §2

## O=c1c(O)c(-c2ccc(O)c(O)c2)oc2cc(O)cc(O)c12 [quercetin]
[1]
  intestinal absorption: less than 1%

## O=c1[nH]c(-c2ccc(F)cc2)nc2ccc(CN3CCOCC3)cc12 [EXAMPLE 46, 2-(4-fluorophenyl)-6-(morpholinomethyl)quinazolin-4(3H)-one]
[2]
  inhibition at 50 µM: ≥ 40%
VCAM-1
  inhibition at 50 µM: < 50%
MCP-1
  inhibition at 50 µM: < 50%
other
  melting point: 321.8 to 323.3 °C

## Cc1cc(-c2cc(=O)c3cccnc3o2)ccc1O [EXAMPLE 5, 2-(4-Hydroxy-3-methylphenyl)-4H-pyrano[2,3-b]pyridine-4-one]
[2]; 10 uM
  inhibition at 10 µM: < 40%
VCAM-1; 10 uM
  inhibition at 10 µM: < 50%
MCP-1; 10 uM
  inhibition at 10 µM: < 50%
other
  melting point: 300 to 302 °C

## O=c1cc(-c2ccc(CO)cc2)oc2ncccc12 [EXAMPLE 23, 2-(4-(hydroxymethyl)phenyl)-4H-pyrano[2,3-b]pyridin-4-one]
[2]
  inhibition at 50 µM: ≥ 40%
VCAM-1
  inhibition at 50 µM: < 50%
MCP-1
  inhibition at 50 µM: < 50%
other
  melting point: 218 to 219 °C

## O=c1cc(-c2ccc(O)c(Br)c2)oc2ncccc12 [EXAMPLE 32, 2-(3-Bromo-4-hydroxyphenyl)-4H-pyrano[2,3-b]pyridin-4-one]
[2]
  inhibition at 50 µM: ≥ 40%
VCAM-1
  inhibition at 50 µM: ≥ 50%
MCP-1
  inhibition at 50 µM: < 50%
other
  melting point: 267 to 272 °C

## COc1cc(OC)c2c(=O)[nH]c(-c3ccc(O)cc3)cc2c1 [EXAMPLE 19, 3-(4-Hydroxyphenyl)-6,8-dimethoxyisoquinolin-1(2H)-one]
[2]
  inhibition at 50 µM: ≥ 40%
VCAM-1
  inhibition at 50 µM: < 50%
MCP-1
  inhibition at 50 µM: ≥ 50%
other
  melting point: 245 to 247 °C

## CNc1nc(-c2ccc(O)c(F)c2)cc2c(OC)cccc12 [EXAMPLE 17, 2-Fluoro-4-(5-methoxy-1-(methylamino)isoquinolin-3-yl)phenol]
[2]
  inhibition at 50 µM: < 40%
VCAM-1
  inhibition at 50 µM: ≥ 50%
MCP-1
  inhibition at 50 µM: ≥ 50%
other
  melting point: 185 to 187 °C

## O=c1[nH]c(-c2ccc(O)cc2)cc2ccccc12 [EXAMPLE 21, 3-(4-Hydroxyphenyl)-2H-isoquinolin-1-one]
[2]
  inhibition at 50 µM: ≥ 40%
VCAM-1
  inhibition at 50 µM: ≥ 50%
MCP-1
  inhibition at 50 µM: ≥ 50%
other
  melting point: 239 to 241 °C

## O=c1cc(-c2cccnc2)oc2ccccc12 [EXAMPLE 25, 2-(pyridin-3-yl)-4H-chromen-4-one]
[2]
  inhibition at 50 µM: ≥ 40%
VCAM-1
  inhibition at 50 µM: < 50%
MCP-1
  inhibition at 50 µM: < 50%
other
  melting point: 122.8 to 124 °C

## O=c1cc(-c2ccc3[nH]ncc3c2)oc2ncc(CN3CCOCC3)cc12 [EXAMPLE 47, 2-(1H-indazol-5-yl)-6-(morpholinomethyl)-4H-pyrano[2,3-b]pyridin-4-one]
[2]
  inhibition at 50 µM: ≥ 40%
VCAM-1
  inhibition at 50 µM: < 50%
MCP-1
  inhibition at 50 µM: < 50%
other
  melting point: 293.1 to 293.2 °C

## COc1cc(OC)c2c(N)nc(-c3cc(C)c(O)c(C)c3)cc2n1 [EXAMPLE 45, 4-(5-amino-2,4-dimethoxy-1,6-naphthyridin-7-yl)-2,6-dimethylphenol]
[2]
  inhibition at 50 µM: ≥ 40%
VCAM-1
  inhibition at 50 µM: ≥ 50%
MCP-1
  inhibition at 50 µM: < 50%
other
  melting point: 163.2 to 165.5 °C

## O=c1cc(-c2ccccc2)oc2ncccc12 [EXAMPLE 22, 2-Phenyl-4H-pyrano[2,3-b]pyridin-4-one]
[2]
  inhibition at 50 µM: ≥ 40%
VCAM-1
  inhibition at 50 µM: < 50%
MCP-1
  inhibition at 50 µM: < 50%
other
  melting point: 103 to 105 °C

— patent publication US8410109B2, “Pharmaceutical compositions for the prevention and treatment of complex diseases and their delivery by insertable medical devices” (Resverlogix Corp., priority 2005, dated 2013)
